{
  "source": "patent US20220090193A1",
  "about": "“ATTACHING NUCLEOTIDES TO A POLYNUCLEOTIDE WITH A POLYMERASE” (priority 2019, published 2022)",
  "origin": "cited, not measured here",
  "conditions": "amino acid side chain",
  "data": [
    {"smiles": "NCCCC[C@H](N)C(=O)O", "note": "[Lysine]", "values": [
      {"measurement": "pKa", "result": 10.54}
    ]}
  ]
}
